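Cells were grown in 96-well plates and exposed to each compound for 48 hours at five concentrations; endpoints were interpolated linearly between bracketing concentrations, or set to the highest concentration if not reached. TGI marks complete inhibition of growth.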
How the values were obtained:
Assay in all cases: NCI tumour cell line growth inhibition, 48 h
MALME-3M melanoma = system: MALME-3M melanoma
LOX IMVI melanoma = system: LOX IMVI melanoma
HCC-2998 colon = system: HCC-2998 colon
HOP-92 NSCLC = system: HOP-92 NSCLC
OVCAR-8 ovarian = system: OVCAR-8 ovarian
CAKI-1 renal = system: CAKI-1 renal
HOP-62 NSCLC = system: HOP-62 NSCLC
OVCAR-3 ovarian = system: OVCAR-3 ovarian
UACC-62 melanoma = system: UACC-62 melanoma
M14 melanoma = system: M14 melanoma
NCI-H226 lung = system: NCI-H226 lung
MOLT-4 leukemia = system: MOLT-4 leukemia
RXF-631 renal = system: RXF-631 renal
KM20L2 colon = system: KM20L2 colon
A549 NSCLC = system: A549 NSCLC
LXFL 529 NSCLC = system: LXFL 529 NSCLC
SF-295 CNS = system: SF-295 CNS
SNB-75 CNS = system: SNB-75 CNS
DMS 273 small cell lung = system: DMS 273 small cell lung
786-0 renal = system: 786-0 renal
OVCAR-5 ovarian = system: OVCAR-5 ovarian
SN12C renal = system: SN12C renal
XF 498 CNS = system: XF 498 CNS
COLO 205 colon = system: COLO 205 colon
K-562 leukemia = system: K-562 leukemia
KM12 colon = system: KM12 colon
UO-31 renal = system: UO-31 renal
UACC-257 melanoma = system: UACC-257 melanoma
TK-10 renal = system: TK-10 renal
OVCAR-4 ovarian = system: OVCAR-4 ovarian
IGROV1 ovarian = system: IGROV1 ovarian
SR leukemia = system: SR leukemia
HT29 colon = system: HT29 colon
SF-539 CNS = system: SF-539 CNS
NCI-H460 lung = system: NCI-H460 lung
NCI-H23 lung = system: NCI-H23 lung
SK-MEL-2 melanoma = system: SK-MEL-2 melanoma
NCI-H522 lung = system: NCI-H522 lung
DLD-1 colon = system: DLD-1 colon
SNB-19 CNS = system: SNB-19 CNS
ACHN renal = system: ACHN renal
HCT-15 colon = system: HCT-15 colon
SF-268 CNS = system: SF-268 CNS
SK-OV-3 ovarian = system: SK-OV-3 ovarian
SNB-78 CNS = system: SNB-78 CNS
HL-60(TB) leukemia = system: HL-60(TB) leukemia
SK-MEL-28 melanoma = system: SK-MEL-28 melanoma
U251 CNS = system: U251 CNS
M19-MEL melanoma = system: M19-MEL melanoma
SW-620 colon = system: SW-620 colon
RPMI-8226 leukemia = system: RPMI-8226 leukemia
EKVX NSCLC = system: EKVX NSCLC
CCRF-CEM leukemia = system: CCRF-CEM leukemia
A498 renal = system: A498 renal
DMS 114 small cell lung = system: DMS 114 small cell lung
HCT-116 colon = system: HCT-116 colon
SK-MEL-5 melanoma = system: SK-MEL-5 melanoma

Measured: TGI

CC(C)COC(=O)c1ccc(N=Cc2ccc(C=Nc3ccc(C(=O)OCC(C)C)cc3)cc2)cc1
not listed: EKVX NSCLC | CCRF-CEM leukemia | A498 renal | DMS 114 small cell lung | HCT-116 colon | SK-MEL-5 melanoma
> 100 µM: all other assays above

O=S1(=O)OCCOS(=O)(=O)C1(Cl)Cl
not listed: KM20L2 colon | OVCAR-5 ovarian | NCI-H460 lung | ACHN renal | HCT-15 colon | U251 CNS
> 100 µM: all other assays above

From PubChem BioAssay (NCI)
